# Article PMC9241644, “Evaluation of Novel Quorum Sensing Inhibitors Targeting Auto-Inducer 2 (AI-2) for the Control of Avian Pathogenic Escherichia coli Infections in Chickens” (Microbiology Spectrum, 2022)
# Values joined by “and” are separate entries in the source; they are usually repeats but may differ in a detail not shown here. Equal values may be shown once.
# Experiments:
# Rif^R APEC O78 [1] = test: Efficacy of QSIs in APEC-infected chickens (oral gavage pilot); format: in vivo, Escherichia coli; conditions: Table S1, oral gavage pilot
# Procedure: The chicken experiment was carried out using 1-day-old broiler chickens (Mayer Hatchery, OH, USA). Feed and water were given ad libitum. Chickens (n = 6/group) were administered with the QSIs (QSI-1, QSI-2, QSI-5 − 8, QSI-10, ChemBridge, San Diego, CA); previously designated as C1, C2, C5, C6, C7, C8, C10 ([17]) using oral gavage. These compounds were selected based on their high efficacy in in vitro studies and the doses correspond to 30X of the initial in vitro screening concentration ([17]). The QSIs were suspended in dimethyl sulfoxide (DMSO; used as a vehicle) and administered once daily for 5 successive days (starting from day 4 to day 8). The first dose was administered 1 day before the challenge, followed by the second dose on the challenge day (2 h before challenge), followed by three additional doses on subsequent days. Feeders were removed 1 h prior to the treatment and replaced 1 h after the treatment. Chickens were challenged subcutaneously (s/c) on day 5 with Rif^R APEC O78 (1 × 10^7 CFU/bird) in PBS using syringe (27 gauge, 0.5 in.). The challenge dose, which […], was chosen based on preliminary experiments conducted with different infection routes (subcutaneous s/c, intra-tracheal and intra-airsacs) and different doses (10^6, 10^7, and 10^8 CFU/chicken). […] Therefore, we selected this challenge dose and route for evaluation of QSIs in chickens ([34]). The positive (PC; infected with APEC O78 and DMSO treated) and negative (NC; non-infected and non-treated) control groups were included.
# (§1) Chickens were monitored for clinical signs for 8 DPI. Any chickens moribund during this period were humanely euthanized and necropsied to determine bacterial load in the internal organs (liver, heart, lung, and kidney). Internal organs were aseptically collected, weighed and suspended in 1× PBS, the amount of PBS added was adjusted based on the organ size to make a suspension, the organ size and amount of PBS added were included in the final calculation of the CFU. The samples were homogenized, serially diluted 10-fold, plated on MacConkey agar (Remel, CA, USA) containing 50 μg/mL rifampicin, and incubated at 37°C for 24 h to determine the CFU/g. Pathological lesions severity in internal organs (pericarditis, perihepatitis, airsacculitis, and lung congestion) was scored as described previously ([21], [59]). At 8 DPI, the remaining chickens were humanely euthanized and necropsied, lesions were scored, and the APEC load was quantified in internal organs as described above.
# Rif^R APEC O78 [2] = test: Comparative efficacy of QSI-5 and SDM in field simulated conditions (built-up floor litter); format: in vivo, Escherichia coli
# Description: as §1
# To compare the efficacy of QSI-5 with an antibiotic SDM currently used in the field, chickens (n = 70) were raised on built-up floor litter in a field-simulated conditions. One-day-old broiler chickens (Case Farms Ohio Hatchery, OH, USA) were used for conducting the experiment. The optimized dose of QSI-5 (1 mg/L) and the therapeutic dose of SDM (495.323 mg/L) (0.05%) were given in drinking water daily for 7 days (starting from day 5 to day 11 of age). The volume of drinking water needed daily was determined as described above. On day 6, the chickens were infected s/c with Rif^r APEC O78 (5 × 10^6 CFU/chicken, s/c). PC (0.05% DMSO treated and infected) and NC (non-infected and non-treated) control groups were included. The mortality was recorded daily until the end of the experiment (42 days of age: slaughter age). At 8 DPI, half of the chickens from each group were necropsied, lesions were scored, and the APEC load was quantified in the internal organs as described above. The other half of the chickens were raised until day 42 to determine the impact of treatment on the body weight gain and feed intake. To calculate the FCR, body weight was measured once every week and feed intake was recorded every day. On day 42, the remaining chickens were euthanized, body weight was measured and 10 chickens from each group were randomly selected and necropsied, lesions and APEC load were assessed in the internal organs.
# [3] = QSI-5 and SDM residue quantification in muscle, kidney and liver (LC-MS); format: in vivo, chickens
# Procedure: The safety of QSI-5 and SDM was assessed by measuring the level of drug residue in the muscle, kidney, and liver using LC-MS (CCIC, MS&P Facility, OSU) as described before ([34]). As described above, chickens were administered with the optimized dose of QSI-5 (1 mg/L) and the therapeutic dose of SDM (495.323 mg/L) (0.05%) in drinking water daily for 7 days (starting from day 5 to day 11 of age). Tissue samples were collected individually from chickens treated with QSI-5 and SDM (five chickens per group) from experimental set up as described for floor trial at 2 DPLT, 5 DPLT, and […] (slaughter age). All samples were weighed and extracted at a 400 mg/mL ratio of tissue in the extraction solution (50:50 H2O: ACN). Samples were homogenized using a probe sonicator 20 times and centrifuged at 13,000 × g for 30 min. Sixty μL of the supernatant was transferred into glass vials and dried in a SpeedVac for 1.5 h, and then resuspended in 120 μL of 25:25:50 H2O:ACN:MeOH. Standard calibration, LC system, mass spectrometer, and drug target monitoring were performed as described above. Calibration standard curves for measuring the accumulation of QSI-5 and SDM in the kidney, liver, and muscle are shown in Fig. S6A and S6B.
# [4] = based on the observations during dosing in drinking water
# APEC = test system: APEC; set-up: method as in PMID 30270715; conditions: in vitro; cited from earlier work
compound,measurement,setting,value
Cc1ccc(CN2CCN(CCCc3ccccc3)CC2)cc1 [QSI-5],"Average lesion severity, Lung","Rif^R APEC O78 [1]; lesion score, PC 1.25",0.17
same,"Average lesion severity, Liver","Rif^R APEC O78 [1]; lesion score, PC 1.75",0.33
same,"Average lesion severity, Airsac","Rif^R APEC O78 [1]; lesion score, PC 2.00",0.17
same,"Average lesion severity, Heart","Rif^R APEC O78 [1]; lesion score, PC 2.25",0.33
same,Mortality rate % (Nr.),"Rif^R APEC O78 [1]; n = 6/group, 8 DPI, PC 66.6 (4/6)",0%
same,"Average APEC load, Liver",Rif^R APEC O78 [1]; PC 5.95,0.72 Log CFU/g of tissue
same,"Average APEC load, Heart",Rif^R APEC O78 [1]; PC 5.98,0.58 Log CFU/g of tissue
same,"Average APEC load, Kidney",Rif^R APEC O78 [1]; PC 6.81,0.67 Log CFU/g of tissue
same,"Average APEC load, Lung",Rif^R APEC O78 [1]; PC 6.83,0.75 Log CFU/g of tissue
same,"Average lesion severity, Lung","Rif^R APEC O78 [2]; Table S3, PC 1.85",0.21
same,"Average lesion severity, Liver","Rif^R APEC O78 [2]; Table S3, PC 2.52",1.68
same,"Average lesion severity, Airsac","Rif^R APEC O78 [2]; Table S3, PC 3.36",1.25
same,"Average lesion severity, Heart","Rif^R APEC O78 [2]; Table S3, PC 3.58",1.93
same,"Average APEC load, Liver","Rif^R APEC O78 [2]; Table S3, PC 7.24",4.95 Log CFU/ g of tissue
same,"Average APEC load, Lung","Rif^R APEC O78 [2]; Table S3, PC 7.68",4.93 Log CFU/ g of tissue
same,"Average APEC load, Kidney","Rif^R APEC O78 [2]; Table S3, PC 7.73",5.06 Log CFU/ g of tissue
same,"Average APEC load, Heart","Rif^R APEC O78 [2]; Table S3, PC 7.92",5.46 Log CFU/ g of tissue
same,Mortality rate % (Nr.),"Rif^R APEC O78 [2]; Table S3, until 42 days of age, QSI-5 (8/63), SDM (19/65), PC 45.6 (31/68)",12.7%
same,reduction in mortality compared with the PC group,"Rif^R APEC O78 [2]; built-up floor litter, QSI-5 1 mg/L, SDM 495.3 mg/L (0.05%) in drinking water 7 days, s/c APEC O78 5 × 10^6 CFU/chicken",88.4% and 72.2%
same,"Drug accumulation, Kidney (ppm± SD)",[3]; 2 DPLT,0.0 ± 0.0 ppm
same,"Drug accumulation, Liver (ppm± SD)",[3]; 2 DPLT,0.0 ± 0.0 ppm
same,"Drug accumulation, Muscle (ppm± SD)","[3]; 2 DPLT, drinking water 7 days (QSI-5 1 mg/L, SDM 495.323 mg/L)",0.0 ± 0.0 ppm
same,"Drug accumulation, Kidney (ppm± SD)",[3]; 5 DPLT,0.0 ± 0.0 ppm
same,"Drug accumulation, Liver (ppm± SD)",[3]; 5 DPLT,0.0 ± 0.0 ppm
same,"Drug accumulation, Muscle (ppm± SD)",[3]; 5 DPLT,0.0 ± 0.0 ppm
same,"Drug accumulation, Kidney (ppm± SD)",[3]; 35 DPLT (slaughter age),0.0 ± 0.0 ppm
same,"Drug accumulation, Liver (ppm± SD)",[3]; 35 DPLT (slaughter age),0.0 ± 0.0 ppm
same,"Drug accumulation, Muscle (ppm± SD)",[3]; 35 DPLT (slaughter age),0.0 ± 0.0 ppm
same,aqueous solubility,[4],good aqueous solubility
same,effect on the growth of APEC,APEC,does not affect the growth of APEC
